Activity calls are given as the source filed them. The calls are words filed in the database; no cut-off is given here.
Key:
[1] = molecular target: T1, NADPH oxidase 4 (Homo sapiens, UniProt Q9NPH5); test: Inhibition of human Nox4 expressed in COS7 cells assessed as inhibition of PMA-induced H2O2 production by amplex red dye based fluorescence assay; type: cell-based; conditions: cos-7
T1 sequence (Q9NPH5 whole entry): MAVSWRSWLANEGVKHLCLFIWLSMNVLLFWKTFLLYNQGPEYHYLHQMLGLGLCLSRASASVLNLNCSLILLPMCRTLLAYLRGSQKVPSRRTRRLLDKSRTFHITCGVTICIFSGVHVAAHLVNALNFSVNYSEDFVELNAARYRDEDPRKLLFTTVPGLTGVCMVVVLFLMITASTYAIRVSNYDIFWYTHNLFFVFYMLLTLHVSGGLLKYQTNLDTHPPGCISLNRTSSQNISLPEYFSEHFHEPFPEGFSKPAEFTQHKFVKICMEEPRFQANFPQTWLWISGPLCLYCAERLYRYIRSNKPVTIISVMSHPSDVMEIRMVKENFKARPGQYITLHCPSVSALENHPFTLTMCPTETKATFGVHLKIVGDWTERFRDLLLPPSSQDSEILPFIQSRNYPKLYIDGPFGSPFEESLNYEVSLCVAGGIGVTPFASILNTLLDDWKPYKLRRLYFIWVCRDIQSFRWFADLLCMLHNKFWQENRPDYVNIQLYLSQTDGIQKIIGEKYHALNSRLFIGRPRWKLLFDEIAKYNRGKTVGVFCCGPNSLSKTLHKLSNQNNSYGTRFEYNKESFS

[2] = molecular target: Xanthine dehydrogenase/oxidase (Bos taurus, UniProt P80457); test: Inhibition of bovine xanthine-oxidase assessed as H2O2 production at 25 to 50 uM by amplex red dye based fluorescence assay; conditions: cattle
[3] = Cytotoxicity against african green monkey COS7 cells at high concentration for 15 mins by fluorescence analysis; type: cell-based; conditions: chlorocebus aethiops, cos-7, 0.25 h
[4] = molecular target: T2, NADPH oxidase 2 (Homo sapiens) (UniProt P04839); test: Inhibition of human Nox2 expressed in COS7 cells co-transfected with human p22-phox,p47phox and p67-phox assessed as inhibition of LiDS-induced superoxide generation at 6.3 uM preincubated for 15 mins followed by addition of LiDS and NADPH; type: cell-based; conditions: COS-7
T2 sequence (whole entry): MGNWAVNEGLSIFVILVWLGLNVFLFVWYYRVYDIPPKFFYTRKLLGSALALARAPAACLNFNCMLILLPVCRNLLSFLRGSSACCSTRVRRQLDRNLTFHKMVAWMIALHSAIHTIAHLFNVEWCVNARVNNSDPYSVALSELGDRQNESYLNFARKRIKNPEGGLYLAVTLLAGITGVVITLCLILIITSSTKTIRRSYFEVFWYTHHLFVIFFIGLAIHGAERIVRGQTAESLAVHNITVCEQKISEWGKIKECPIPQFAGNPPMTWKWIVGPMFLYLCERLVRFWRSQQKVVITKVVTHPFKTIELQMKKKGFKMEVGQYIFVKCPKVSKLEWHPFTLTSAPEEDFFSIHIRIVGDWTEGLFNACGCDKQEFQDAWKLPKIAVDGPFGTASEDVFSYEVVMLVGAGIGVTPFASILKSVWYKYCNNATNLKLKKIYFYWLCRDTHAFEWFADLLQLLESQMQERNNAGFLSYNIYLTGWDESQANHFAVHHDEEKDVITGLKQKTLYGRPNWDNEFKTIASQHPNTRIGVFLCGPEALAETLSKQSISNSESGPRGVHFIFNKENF

[5] = test system: HPAEC; test: Inhibition of high-glucose-stimulated superoxide production in HPAEC cells at 25 uM measured after 24 hrs; type: functional, cell-based; conditions: Homo sapiens
[6] = test system: HPAEC; test: Inhibition of angiotensin-2-stimulated superoxide production in HPAEC cells at 25 uM measured after 24 hrs; type: functional, cell-based; conditions: Homo sapiens
[7] = molecular target: T2, NADPH oxidase 2 (Homo sapiens); test: Inhibition of human Nox2 expressed in COS7 cells co-transfected with human p22-phox,p47phox and p67-phox assessed as inhibition of PMA-induced ROS production at 10 uM; type: cell-based; conditions: COS-7
[8] = molecular target: T3, NADPH oxidase 1 (Homo sapiens) (UniProt Q9Y5S8); test: Inhibition of human Nox1 expressed in COS7 cells co-transfected with human co-transfected with human NOXO1/NOXA1 assessed as inhibition of PMA-induced ROS production at 10 uM; type: cell-based; conditions: COS-7
T3 sequence (whole entry): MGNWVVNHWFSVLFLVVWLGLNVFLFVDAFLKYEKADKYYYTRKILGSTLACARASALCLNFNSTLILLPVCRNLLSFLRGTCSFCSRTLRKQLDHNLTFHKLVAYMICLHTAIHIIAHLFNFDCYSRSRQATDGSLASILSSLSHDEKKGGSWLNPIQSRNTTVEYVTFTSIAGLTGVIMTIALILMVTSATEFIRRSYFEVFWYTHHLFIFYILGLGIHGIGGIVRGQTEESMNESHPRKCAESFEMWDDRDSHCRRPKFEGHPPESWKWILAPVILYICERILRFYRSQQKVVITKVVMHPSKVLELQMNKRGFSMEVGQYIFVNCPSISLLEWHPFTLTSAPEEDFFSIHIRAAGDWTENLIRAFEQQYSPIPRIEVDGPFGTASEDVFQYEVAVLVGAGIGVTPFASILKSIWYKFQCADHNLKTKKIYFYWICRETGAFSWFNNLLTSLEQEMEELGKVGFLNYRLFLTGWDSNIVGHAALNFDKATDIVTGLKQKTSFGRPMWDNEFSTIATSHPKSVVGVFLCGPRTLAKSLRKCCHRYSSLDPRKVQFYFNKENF

[9] = test system: Cardiac muscle cell; test: Inhibition of high-glucose-stimulated ROS production in rat cardiomyocyte at 25 uM; type: functional
[10] = test system: Cardiac muscle cell; test: Inhibition of high-glucose-stimulated hypertrophy in rat cardiomyocyte at 25 uM; type: functional
[11] = test system: Fibroblast; test: Inhibition of PMA-induced ROS production in human fibroblast at 10 uM; type: functional, cell-based
[12] = molecular target: T4, NADPH oxidase 2 (Homo sapiens, UniProt P04839); test: Inhibition of human Nox2 expressed in COS7 cells co-transfected with human p22-phox,p47phox and p67-phox assessed as inhibition of PMA-induced superoxide generation by L-012 chemiluminescence analysis; type: cell-based; conditions: cos-7
T4 sequence (P04839 whole entry): T2 sequence (whole entry)

[13] = molecular target: T4, NADPH oxidase 2; test: Inhibition of human Nox2 expressed in COS7 cells co-transfected with human p22-phox,p47phox and p67-phox assessed as inhibition of PMA-induced H2O2 production by amplex red dye based fluorescence assay; type: cell-based; conditions: cos-7
[14] = molecular target: T5, NADPH oxidase 1 (Homo sapiens, UniProt Q9Y5S8); test: Inhibition of human Nox1 expressed in COS7 cells co-transfected with human NOXO1/NOXA1 assessed as inhibition of PMA-induced superoxide generation by L-012 chemiluminescence analysis; type: cell-based; conditions: cos-7
T5 sequence (Q9Y5S8 whole entry): T3 sequence (whole entry)

Chain of Xanthine dehydrogenase/oxidase (P80457 whole entry): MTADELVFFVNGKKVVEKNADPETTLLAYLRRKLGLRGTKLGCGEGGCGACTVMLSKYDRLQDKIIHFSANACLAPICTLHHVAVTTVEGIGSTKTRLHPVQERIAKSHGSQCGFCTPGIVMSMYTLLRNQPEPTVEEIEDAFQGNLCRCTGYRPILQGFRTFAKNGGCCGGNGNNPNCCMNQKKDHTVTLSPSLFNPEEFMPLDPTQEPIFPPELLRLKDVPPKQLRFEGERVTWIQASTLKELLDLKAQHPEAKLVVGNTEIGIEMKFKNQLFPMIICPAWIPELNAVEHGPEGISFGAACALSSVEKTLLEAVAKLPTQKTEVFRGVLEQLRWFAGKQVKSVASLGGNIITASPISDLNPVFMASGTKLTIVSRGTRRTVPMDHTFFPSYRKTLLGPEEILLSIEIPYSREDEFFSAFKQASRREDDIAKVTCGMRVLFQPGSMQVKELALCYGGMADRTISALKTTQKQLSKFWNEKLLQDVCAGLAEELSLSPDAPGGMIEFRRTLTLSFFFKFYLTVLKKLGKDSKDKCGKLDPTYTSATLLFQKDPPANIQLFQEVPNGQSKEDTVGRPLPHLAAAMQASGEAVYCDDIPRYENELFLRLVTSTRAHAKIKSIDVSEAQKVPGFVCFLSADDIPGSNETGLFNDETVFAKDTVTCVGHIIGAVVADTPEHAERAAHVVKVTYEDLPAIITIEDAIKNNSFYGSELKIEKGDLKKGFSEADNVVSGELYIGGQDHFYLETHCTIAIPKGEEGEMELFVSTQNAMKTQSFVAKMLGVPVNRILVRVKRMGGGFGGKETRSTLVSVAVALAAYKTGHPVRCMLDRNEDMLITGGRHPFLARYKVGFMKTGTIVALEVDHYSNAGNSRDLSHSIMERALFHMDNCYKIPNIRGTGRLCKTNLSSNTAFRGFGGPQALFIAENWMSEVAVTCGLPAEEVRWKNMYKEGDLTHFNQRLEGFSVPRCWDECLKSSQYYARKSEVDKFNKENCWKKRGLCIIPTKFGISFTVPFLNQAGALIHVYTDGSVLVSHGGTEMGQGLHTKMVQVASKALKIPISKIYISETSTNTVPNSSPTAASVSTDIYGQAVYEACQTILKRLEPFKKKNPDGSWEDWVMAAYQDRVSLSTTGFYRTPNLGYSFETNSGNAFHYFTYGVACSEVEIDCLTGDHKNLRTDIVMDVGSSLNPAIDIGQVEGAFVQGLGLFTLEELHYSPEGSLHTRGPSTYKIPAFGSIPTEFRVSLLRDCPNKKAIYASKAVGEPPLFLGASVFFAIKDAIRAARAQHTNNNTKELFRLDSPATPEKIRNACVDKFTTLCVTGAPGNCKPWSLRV

IC50 [1] | inhibition (INH) [2] | Structure (SMILES) | further results
Not Active | Not Active | C=C(C)C[C@@H]1N[C@H]2CC(C)(C)[C@@H]1c1c(Br)ccc(Br)c12 | Activity [3]: Toxic
– | Not Active | C=C(C)CC1NC2CC(C)(C)C1c1c(Br)cccc12 (racemic) | inhibition [4]: Active; Activity [3]: Toxic
– | Not Active | CC(C)CC1NC2CC(C)(C)C1c1c(Br)cccc12 (racemic) | Activity [3]: Toxic
– | Not Active | C=C(C)CC1C2c3ccccc3C(CC2(C)C)N1Cc1cccc(F)c1 (racemic) | –
Not Active | Not Active | C=C(C)CC1C2c3c(Br)cccc3C(CC2(C)C)N1Cc1ccnc2ccccc12 (racemic) | –
Not Active | Not Active | C=C(C)CC1C2c3c(Br)cccc3C(CC2(C)C)N1Cc1c[nH]c2ccccc12 (racemic) | –
– | Not Active | C=C(C)CC1C2c3c(Br)cccc3C(CC2(C)C)N1Cc1ccc2c(c1)OCO2 (racemic) | –
– | Not Active | C=C(C)CC1C2c3c(Br)cccc3C(CC2(C)C)N1Cc1cc(C)on1 (racemic) | –
– | Not Active | C=C(C)CC1C2c3c(Br)cccc3C(CC2(C)C)N1Cc1cccc(F)c1 (racemic) | –
– | Not Active | C=C(C)CC1C2c3c(Br)cccc3C(CC2(C)C)N1CCCCC (racemic) | inhibition [5]: Active; inhibition [6]: inactive; inhibition [7]: Active; inhibition [8]: Active; inhibition [9]: Active; inhibition [10]: Active; inhibition [11]: Active
– | Not Active | C=C(C)CC1NC2CC(C)(C)C1c1c(-c3ccc(Cl)c(Cl)c3)cccc12 (racemic) | –
– | – | C=C(C)C[C@@H]1N[C@H]2CC(C)(C)[C@@H]1c1c(-c3cccnc3)cccc12 (racemic) | IC50 [12]: Not Active; IC50 [13]: Not Active
Not Active | Not Active | C=C(C)CC1C2c3c(-c4ccc(Cl)c(Cl)c4)cccc3C(CC2(C)C)N1Cc1ccc2c(c1)OCO2 (racemic) | –
– | Not Active | C=C(C)CC1C2c3c(-c4ccc(Cl)c(Cl)c4)cccc3C(CC2(C)C)N1CCCCC (racemic) | –
– | Not Active | C=C(C)CC1C2c3c(Br)cccc3C(CC2(C)C)N1S(C)(=O)=O (racemic) | IC50 [14]: Not Active
Not Active | Not Active | C=C(C)CC1C2c3c(Br)cccc3C(CC2(C)C)N1S(=O)(=O)c1ccc(F)cc1 (racemic) | –

Structure (SMILES) | IC50 [1] | inhibition (INH) [2] | further results
C=C(C)CC1NC2CC(C)(C)C1c1ccccc12 (racemic) | Not Active | Not Active | –
